Measured values as given in US9988381B2, “Five-member-heterocycle fused pyridine compounds, method of producing the same, and use thereof” (SHANGHAI INSTITUTE OF MATERIA MEDICA, CHINESE ACADEMY OF …, priority 2013, dated 2018).
Where two headings read alike, the source gives them in different places.

Legend:
[1] = biological target: T1, c-Met kinase domain recombinant protein (Homo sapiens, UniProt P08581); test: biochemical; conditions: read-out: Inhibition rate at 10 μM (%)
T1 construct: 50 μL diluted solution of c-Met kinase domain recombinant protein in reaction buffer was added to initiate the reaction
How it was run: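 ELISA on plates coated with Poly(Glu,Tyr)4:1 (20 μg/mL), kinase reaction with c-Met kinase domain and ATP in HEPES pH 7.4 buffer with MgCl2, MnCl2, Na3VO4 and DTT, 1 h at 37 °C. Phosphotyrosine detected with PY99 and HRP secondary antibody, read at 490 nm; inhibition rate calculated against ATP-free control.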

BaF3/TPR-Met cell = test: Test III: growth inhibition of engineered BaF3/TPR-Met cells (MTT); type: cell-based; conditions: Mus musculus; for inhibition at 0.2 µM: read-out: Cell proliferation inhibition rate at 200 nM (%); for inhibition at 1 µM: read-out: Cell proliferation inhibition rate at 1 μM (%)
Procedure: Assays on the growth inhibition of the compounds against engineered BaF3/TPR-Met cell (engineered cell line having TPR-Met fusion protein stably expressed in cytoplasm, persistently activated, Met dependent sensitive cell line; BaF3 cell was purchased from DSMZ, German) were detected using microculture tetrozolium (MTT) staining. A certain amount of BaF3/TPR-Met cells at log phase were inoculated into 96-well culture plate at 90 µL per well, incubated overnight and then 10 μL compound at various concentrations or vehicle control (normal saline) was added, each concentration was tested in triplicate. After incubation with compound for 72 hours, the incubation was terminated, MTT solution (5 mg/mL) was added at 20 μL per well, incubated at 37° C. for 4 hours, then 100 μL triplet solution (10% SDS−5% isobutanol−0.01M HCl) was added, incubated overnight at 37° C., OD value was measured at 570 nm. […] Experiments were conducted in duplicates.

[2] = biological target: T1, c-Met kinase domain recombinant protein; test: biochemical; conditions: for inhibition at 0.1 µM: read-out: Average inhibition rate at 0.1 μM (%); for inhibition at 1 µM: read-out: Average inhibition rate at 1 μM (%); for inhibition at 10 µM: read-out: Average inhibition rate at 10 μM (%)
How it was run: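 ELISA on plates coated with Poly(Glu,Tyr)4:1 (20 μg/mL coating solution). Recombinant c-Met kinase domain reacted with 5 μM ATP in HEPES pH 7.4 with Mg/Mn, vanadate and DTT for 1 hour at 37° C. Phosphotyrosine was detected with PY99 and HRP secondary antibody, read at 490 nm, and IC50 was taken from a four-parameter fit.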

EBC-1 cell = test: Test III: growth inhibition of non-small cell carcinoma EBC-1 cell (SRB); type: cell-based; conditions: Homo sapiens, EBC-1, 72 h; for inhibition at 0.2 µM: read-out: Cell proliferation inhibition rate at 200 nM (%); for inhibition at 1 µM: read-out: Cell proliferation inhibition rate at 1 μM (%)
Procedure: Assays on the growth inhibition of the compounds against gastric tumor cell MKN45, non-small cell carcinoma EBC-1 cell (both are MET persistent activated cell lines due to MET gene amplification, and are Met dependent tumor cell lines, MKN45 cell was purchased from JCRB, Japan, EBC-1 cell was purchased from ATCC, USA) were detected using sulforhodamine B (SRB) staining. […] After incubation with compound for 72 hours, the incubation was terminated, adherent cells were retained and medium was discarded, 10% (w/v) trichloroacetic acid (100 μL pre well) was added, the cells were fixed at 4° C. for 1 hour, then rinsed with distilled water for 5 times, after dried at room temperature, SRB solution (4 mg/mL, dissolved in 1% glacial acetic acid) was added at 100 μL per well, incubated and stained at room temperature for 15 minutes, then rinsed with 1% glacial acetic acid for 5 times to remove any unbound SRB, dried at room temperature, then 10 mM Tris solution was added at 100 μL per well, the optical density (OD) value at 515 nm was measured using VERSMax microplate reader.
Experiments were conducted in duplicates. IC50 value was calculated by fitting the data for a four parameter fit using inhibition curve, the results are shown below in Table 2.

T1 sequence (P08581 1078-1345 limits assumed): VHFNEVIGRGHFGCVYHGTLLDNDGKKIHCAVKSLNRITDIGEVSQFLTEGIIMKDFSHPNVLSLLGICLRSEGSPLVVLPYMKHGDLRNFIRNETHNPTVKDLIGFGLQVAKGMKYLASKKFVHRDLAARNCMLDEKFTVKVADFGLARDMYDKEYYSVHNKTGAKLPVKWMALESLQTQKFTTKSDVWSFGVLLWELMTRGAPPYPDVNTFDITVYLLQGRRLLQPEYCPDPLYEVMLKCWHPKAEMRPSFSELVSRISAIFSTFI

inhibition at 10 µM [1] [%] | IC50 [2] [nM] | inhibition at 0.1 µM [2] [%] | inhibition at 1 µM [2] [%] | inhibition at 10 µM [2] [%] | SMILES | inhibition at 0.2 µM (BaF3/TPR-Met cell; BaF3, 72 h) [%] | inhibition at 1 µM (BaF3/TPR-Met cell; BaF3, 72 h) [%] | inhibition at 1 µM (BaF3/TPR-Met cell; BaF3/TPR-Met, 1 μM, 72 hours) [%] | inhibition at 0.2 µM (EBC-1 cell) [%] | inhibition at 1 µM (EBC-1 cell) [%]
64 | 4.2 ± 0.6 | 52.2 | 60.5 | 64 | Cn1cc(-c2cnc3cnn(S(=O)(=O)c4c(Cl)nc5sccn45)c3c2)cn1 [Compound 18] | 1.8 | 94.4 |  |  | 
85.7 | 316 ± 141 | 54.9 | 72.6 | 85.7 | Cn1cc(-c2cnc3cnn(S(=O)(=O)c4cccc5nonc45)c3c2)cn1 [Compound 20, 1-(benzo[1,2,5]oxadiazole-4-sulfonyl)-6-[(1-methyl)-4-pyrazolyl]-1-H-pyrazolo[4,3-b]pyridine] | 3.2 | 2.9 |  |  | 
77.9 |  | 59 | 59.7 | 77.9 | Cn1cc(-c2cnc3cnn(S(=O)(=O)c4cnc5cccnn45)c3c2)cn1 [Example 21, 1-(imidazo[1,2-b]pyridazine-3-sulfonyl)-6-[(1-methyl)-4-pyrazolyl]-1-H-pyrazolo[4,3-b]pyridine] |  |  | 42.7 |  | 
70.5 | 2.5 ± 1.2 | 62.9 | 67.8 | 70.5 | Cn1cc(-c2cnc3cnn(S(=O)(=O)c4cnc5ccc(Cl)cn45)c3c2)cn1 [Example 24, 1-[(6-chloro-imidazo[1,2-a]pyridine)-3-sulfonyl]-6-[(1-methyl)-4-pyrazolyl]-1-H-pyrazolo[4,3-b]pyridine] | 65.9 | 90.9 |  |  | 
86.2 | 21.3 ± 2.3 | 71.7 | 78 | 86.2 | Cn1cc(-c2cnc3cnn(S(=O)(=O)c4cnc5ccc(Cl)nn45)c3c2)cn1 [Example 25, 1-[(6-chloro-imidazo[1,2-b]pyridazine)-3-sulfonyl]-6-[(1-methyl)-4-pyrazolyl]-1-H-pyrazolo[4,3-b]pyridine] | 36.3 | 88.4 |  |  | 
70.6 | 6.7 ± 0.5 | 64.6 | 70.3 | 70.6 | O=S(=O)(c1cnc2ccccn12)n1ncc2ncc(-c3ccccc3)cc21 [Example 28, 1-(imidazo[1,2-a]pyridine-3-sulfonyl)-6-phenyl-1-H-pyrazolo[4,3-b]pyridine] |  | 66.1 |  |  | 
65.7 | 4.6 ± 1 | 55.7 | 63.8 | 65.7 | O=S(=O)(c1cnc2ccccn12)n1ncc2ncc(-c3ccsc3)cc21 [Example 29, 1-(imidazo[1,2-a]pyridine-3-sulfonyl)-6-(3-thienyl)-1-H-pyrazolo[4,3-b]pyridine] |  | 92.6 |  |  | 
73.3 | 6.4 ± 2.2 | 60.1 | 63.8 | 73.3 | CN1CCN(C(=O)c2ccc(-c3cnc4cnn(S(=O)(=O)c5cnc6ccccn56)c4c3)cc2)CC1 [Example 37, 1-(imidazo[1,2-a]pyridine-3-sulfonyl)-6-[4-(4-methylpiperazine-1-carbonyl)phenyl]-1-H-pyrazolo[4,3-b]pyridine] | 59.5 | 96.2 |  |  | 
68.8 | 2.6 ± 0.3 | 58.2 | 65 | 68.8 | O=S(=O)(c1cnc2ccccn12)n1ncc2ncc(-c3ccc(N4CCOCC4)cc3)cc21 [Example 39, 1-(imidazo[1,2-a]pyridine-3-sulfonyl)-6-(4-morpholinylphenyl)-1-H-pyrazolo[4,3-b]pyridine] | 74.4 | 96.3 |  |  | 
 | 0.6 ± 0.01 | 87.7 | 90.5 |  | CCN1CCC(n2cc(-c3cnc4cnn(S(=O)(=O)c5cnc6ccc(-c7cnn(C)c7)cn56)c4c3)cn2)CC1 [Example 138, 1-{(6-[(1-methyl)-4-pyrazolyl]-imidazo[1,2-a]pyridine)-3-sulfonyl}-6-{{1-[(1-ethyl)-4-piperidinyl]}-4-pyrazolyl}-1-H-pyrazolo[4,3-b]pyridine] |  |  |  | 90.9 | 92.9
 | 0.5 ± 0.03 | 92.4 | 89.5 |  | Cn1cc(-c2ccc3ncc(S(=O)(=O)n4ncc5ncc(-c6cnn(C7CCNCC7)c6)cc54)n3c2)cn1 [Example 140, 1-{(6-[(1-methyl)-4-pyrazolyl]-imidazo[1,2-a]pyridine)-3-sulfonyl}-6-{[1-(4-piperidinyl)]-4-pyrazolyl}-1-H-pyrazolo[4,3-b]pyridine] |  |  |  | 91.4 | 92
 | 0.4 ± 0.1 | 90 | 92.1 |  | Cn1cc(-c2ccc3ncc(S(=O)(=O)n4ncc5ncc(-c6ccc(CN7CCOCC7)cc6)cc54)n3c2)cn1 [Example 143, 1-{(6-[(1-methyl)-4-pyrazolyl]-imidazo[1,2-a]pyridine)-3-sulfonyl}-6-(4-morpholinomethylphenyl)-1-H-pyrazolo[4,3-b]pyridine] |  |  |  | 92.3 | 92.5
 | 0.3 ± 0.01 | 92.1 | 93.1 |  | Cn1cc(-c2ccc3ncc(S(=O)(=O)n4ncc5ncc(-c6ccccc6)cc54)n3c2)cn1 [Example 144, 1-{(6-[(1-methyl)-4-pyrazolyl]-imidazo[1,2-a]pyridine)-3-sulfonyl}-6-phenyl-1-H-pyrazolo[4,3-b]pyridine] |  |  |  | 91.1 | 91.4

SMILES | inhibition at 10 µM [1] [%] | IC50 [2] [nM] | inhibition at 0.1 µM [2] [%] | inhibition at 1 µM [2] [%] | inhibition at 10 µM [2] [%] | inhibition at 0.2 µM (BaF3/TPR-Met cell; BaF3, 72 h) [%] | inhibition at 1 µM (BaF3/TPR-Met cell; BaF3, 72 h) [%] | inhibition at 1 µM (BaF3/TPR-Met cell; BaF3/TPR-Met, 1 μM, 72 hours) [%] | inhibition at 0.2 µM (EBC-1 cell) [%] | inhibition at 1 µM (EBC-1 cell) [%]
CC(C)(C)OC(=O)N1CCC(n2cc(-c3cnc4cnn(S(=O)(=O)c5cnc6ccccn56)c4c3)cn2)CC1 [Example 44, 1-(imidazo[1,2-a]pyridine-3-sulfonyl)-6-{{1-[(1-t-butoxycarbonyl)-4-piperidinyl]}-4-pyrazolyl}-1-H-pyrazolo[4,3-b]pyridine] | 87.5 | 6.9 ± 1.9 | 74.6 | 78.6 | 87.5 | 95 | 95.8 |  |  | 
Cn1cc(-c2ccc3ncc(S(=O)(=O)n4ncc5ncc(C6=CCNCC6)cc54)n3c2)cn1 [Example 139, 1-{(6-[(1-methyl)-4-pyrazolyl]-imidazo[1,2-a]pyridine)-3-sulfonyl}-6-[4-(1,2,3,6-tetrahydropyridinyl)]-1-H-pyrazolo[4,3-b]pyridine] |  | 1 ± 0.1 | 90.3 | 88.9 |  |  |  |  | 90.7 | 91.6
Cn1cc(-c2ccc3ncc(S(=O)(=O)n4ncc5ncc(-c6cnn(C7CCN(C(=O)OC(C)(C)C)CC7)c6)cc54)n3c2)cn1 [Example 141, 1-{(6-[(1-methyl)-4-pyrazolyl]-imidazo[1,2-a]pyridine)-3-sulfonyl}-6-{{1-[(1-t-butoxycarbonyl)-4-piperidinyl]}-4-pyrazolyl}-1-H-pyrazolo[4,3-b]pyridine] |  | 0.3 ± 0.1 | 86.3 | 88.5 |  |  |  |  | 92.6 | 92.7
